From patent US20070072830A1, “Methods for treating diabetes” (Point Therapeutics, Inc., priority 2004, published 2007)
Where two headings read alike, the source gives them in different places.

Legend:
[1] = system: Lewis rats
Procedure: (§1) Serum DPP-IV inhibition and observation of acute toxicity of amino boronic dipeptides in Lewis rats. […] After observations were completed or at the onset of a moribund state, humane euthanasia was performed by asphyxiation in 100% CO2.

[2] = target: T1, soluble recombinant human DPP-IV (Homo sapiens, UniProt P27487); test: In vitro inhibition of recombinant soluble DPP-IV by amino boronic dipeptides; type: biochemical; details: assayed at 3 minutes, 78 minutes and 16 hours after addition of Ala-Pro-AFC
T1 construct: immunoglobulin kappa light chain secretion signal (pSecTag2-B) (N, cleaved yes); made in house; host or cells: 293T cells, transient transfection; culture supernatant used unpurified
Source text: Production of soluble recombinant human DPP-IV. Based on information on the N-terminus of serum DPP-IV (15), a truncated DPP-IV was engineered in which a signal/leader sequence was joined to the residue in DPP-IV corresponding to the N-terminus of serum DPP-IV to allow secretion. The cDNA encoding the desired truncated human DPP-IV dimer enzyme was engineered into the mammalian secretion vector pSecTag2 (Cat# V900-20, InVitrogen Corporation). The vector, available in A, B or C versions, representing three possible phases for gene fusion, contained an immunoglobulin-kappa light chain secretion signal followed by a selection of restriction sites for gene insertion. The fusion required engineering a restriction site upstream of the chosen fusion amino acid in the 5′ end of the DPP-IV dimer enzyme nucleic acid in phase with the chosen restriction site (Sfi I) in the vector secretion sequence. The chosen fusion amino acid in the 5′ end of the DPP-IV (Ser39) was 3′ of the trans-membrane anchoring domain. The pSecTag2 version B and its Sfi I restriction site was chosen for the fusion because it minimizes the additional N-terminal, vector-encoded residues in the mature secreted protein.
Construction of the fusion was as follows. First, total RNA was isolated from the Caco-2 colorectal carcinoma cell line (ATCC HTB-37) by standard Trizol/phenol /chloroform methodology. The purified RNA (approx. 2.5 μg in a 20 μl reaction) was used to make cDNA using oligo-dT primer and a commercial reverse transcription (RT) kit (InVitrogen). […] The following thermal cycler program was used: 94° C. for 45 sec. initial denaturation, then 30 cycles of 94° C., 10 sec.; 48° C., 6 sec.; 60° C., 4 min; followed by 5-min. extension at 72° C. after cycling.
DNA from the plasmid encoding DPP-IV dimer enzyme was prepared on an approximately 400 μg scale from overnight 30 ml cultures in Luria broth with 100 μg ampicillin per ml using a commercial kit (Qiagen Maxiprep Kit).
In vitro assay of enzymatic activity of recombinant soluble DPP-IV and inhibition by amino boronic dipeptides. The assay reaction mixture consisted of 135 μl 50 mM HEPES/Na buffer pH 7.6, 140 mM NaCl, 10-15 μl enzyme-containing culture supernatant, dipeptide substrate Ala-Pro-(7-amino-4-trifluoromethyl coumarin) (Ala-Pro-AFC; Enzyme System Products, Dublin, Calif.) at typically 0.1-1 mM added from a 100 or 400 mM stock in dimethyl formamide. The reaction mixture was incubated at room temperature, and production of the fluorescent AFC product was measured in a fluorometer (excitation, 400 nm; emission 505 nm), either by continuous monitoring or after termination with a one to one-tenth volume of 1-M sodium acetate, pH 4.5. Fluorometric reading were made with a […] Spectra Max GeminiXS capable of reading 96-well microtiter plates. The inhibitory activity of amino boronic dipeptides was investigated by preincubation of assay reaction mixtures with varying concentrations of each compound for 10 minutes before the addition of the substrate Ala-Pro-AFC.

[3] = target: T2, serum DPP-IV (Mus musculus, UniProt P28843); test: Serum DPP-IV inhibition in vivo in BALB/c mice after oral gavage; details: 2 hours
T2 construct: from tissue; host or cells: serum of BALB/c mice dosed orally
Procedure: (§2) Assay of serum DPP-IV inhibition in vivo.
(§3) Assay ofserum DPP-IV inhibition and KC/CXCL1 levels in vivo. […] Each mouse received a single administration of each amino boronic dipeptide or saline, and blood samples were withdrawn from mice 2 hours later.
Serum DPP-IV activity was determined by reaction of a 10 μl volume of serum with 0.1 mM Ala-Pro-AFC (Enzyme System Products, Dublin, Calif.) in a 100 μl volume of 50 mM HEPES/Na buffer pH 7.6, 140 mM NaCl. […] Serum DPP-IV activity was expressed as fluorescent units (FU).

[4] = system: serum KC/CXCL1; test: Serum KC/CXCL1 levels in vivo in BALB/c mice; details: 0.2-200 μg/mouse oral, 2 hours
Procedure: as §3
Serum concentration of mouse KC/CXCL1 was determined by Quantikine enzyme-linked immunosorbent assay (ELISA; R&D Systems, Minneapolis, Minn.) according to the manufacturer's instructions. ELISA was performed in duplicate for each sample.

[5] = system: ob/ob mice; test: Mouse oral glucose tolerance test (OGTT); type: in vivo
Procedure: Protocol for mouse oral glucose tolerance test (OGTT). The day of oral-glucose challenge was defined as day 0. […] Agents were administered by oral gavage. Mice were restricted to a diet of 50% of their individual calculated food intake from day −1 onwards. On day 0, blood glucose was measured at t−15 min. immediately followed by drug administration. At time point 0, glucose was administered by oral gavage (1 g/kg), and blood glucose was measured at time points 0, 30, 60, 120 and 240 minutes. Means±SE were calculated from the data of individual mice in drug-treatment groups 1 and 2.

[6] = system: Zucker fa/fa rats; test: Rat oral glucose tolerance test (OGTT): glucose, insulin, GLP-1; type: in vivo; details: 10 μmol/kg oral
Source text: Protocol for rat oral glucose tolerance test (OGTT). […] On days −11 to −8, rats were fitted with intra-arterial catheters under light isoflurane anesthesia. […] From 12:00 a.m.

[7] = system: human bone marrow stromal cells; test: G-CSF supernatant levels in human bone marrow stromal cell cultures; type: cell-based; details: 1 to 10^4 nM, 24 hours in vitro
Procedure: Human bone marrow stromal cell cultures. Samples of normal human bone marrow were purchased from Cambrex Bioproducts (Walkersville, Md.) and mononuclear cells were purified over Ficoll-Hypaque (Nycomed, Oslo, Norway). Human stromal layers were established by seeding 4×10^7 mononuclear cells into T75 flasks (Coming) containing 20 ml MyeloCult medium (Stem Cell Technologies, Vancouver, BC) supplemented with 10^−6 M hydrocortisone (Sigma) and incubation at 37° C. in 100% humidified 5% CO2 in air. After one week, half the medium was exchanged, and the cultures incubated for approximately one week more, after which time, a semi-confluent cell layer was formed. Stromal cells were harvested by trypsinization using standard technique and 10^5 cells/well were seeded in multi-well plates in 1 ml of fully supplemented DMEM (InVitrogen, Carlsbad, Calif.). […] Multiwell cultures without the addition of amino boronic dipeptides served as controls. […] Supernatant concentrations of human G-CSF were determined by Quantikine enzyme-linked immunosorbent assay (ELISA; R&D Systems, Minneapolis, Minn.) according to the manufacturer's instructions. […] The effect of each amino boronic dipeptide on the level of supernatant G-CSF was determined by calculating a stimulation index (SI): SI=(mean G-CSF concentration in culture with amino boronic dipeptide)/(mean G-CSF concentration in control culture).

[8] = target: T3, serum DPP-IV (Rattus norvegicus, UniProt P14740); test: Serum DPP-IV inhibition in Lewis rats; type: in vivo; details: single oral administration, 2 hours
T3 construct: from tissue; host or cells: serum of Lewis rats dosed in vivo
Procedure: as §2, §1

[9] = Lewis rats, single dose, observed 5 days

T1 sequence (P27487 39-766): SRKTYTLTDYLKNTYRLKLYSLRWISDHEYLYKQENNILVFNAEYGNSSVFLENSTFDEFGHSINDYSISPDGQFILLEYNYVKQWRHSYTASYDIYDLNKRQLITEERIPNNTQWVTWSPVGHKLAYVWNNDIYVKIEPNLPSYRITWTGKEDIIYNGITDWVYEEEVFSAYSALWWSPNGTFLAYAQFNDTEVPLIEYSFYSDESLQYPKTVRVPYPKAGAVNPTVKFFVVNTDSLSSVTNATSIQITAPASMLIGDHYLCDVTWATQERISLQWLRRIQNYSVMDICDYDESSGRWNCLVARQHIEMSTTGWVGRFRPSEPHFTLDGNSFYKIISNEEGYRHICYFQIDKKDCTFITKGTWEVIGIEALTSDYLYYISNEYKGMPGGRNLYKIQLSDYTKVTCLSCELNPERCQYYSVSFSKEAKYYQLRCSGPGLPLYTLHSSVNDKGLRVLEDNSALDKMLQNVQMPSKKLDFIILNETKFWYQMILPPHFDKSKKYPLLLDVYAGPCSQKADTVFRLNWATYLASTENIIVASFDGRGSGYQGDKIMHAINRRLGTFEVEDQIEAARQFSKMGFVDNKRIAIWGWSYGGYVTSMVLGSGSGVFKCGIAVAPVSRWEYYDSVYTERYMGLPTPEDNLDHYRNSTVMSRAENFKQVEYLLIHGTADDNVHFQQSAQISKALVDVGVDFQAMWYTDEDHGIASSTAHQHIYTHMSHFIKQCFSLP
T2 sequence (P28843 37-760 limits assumed): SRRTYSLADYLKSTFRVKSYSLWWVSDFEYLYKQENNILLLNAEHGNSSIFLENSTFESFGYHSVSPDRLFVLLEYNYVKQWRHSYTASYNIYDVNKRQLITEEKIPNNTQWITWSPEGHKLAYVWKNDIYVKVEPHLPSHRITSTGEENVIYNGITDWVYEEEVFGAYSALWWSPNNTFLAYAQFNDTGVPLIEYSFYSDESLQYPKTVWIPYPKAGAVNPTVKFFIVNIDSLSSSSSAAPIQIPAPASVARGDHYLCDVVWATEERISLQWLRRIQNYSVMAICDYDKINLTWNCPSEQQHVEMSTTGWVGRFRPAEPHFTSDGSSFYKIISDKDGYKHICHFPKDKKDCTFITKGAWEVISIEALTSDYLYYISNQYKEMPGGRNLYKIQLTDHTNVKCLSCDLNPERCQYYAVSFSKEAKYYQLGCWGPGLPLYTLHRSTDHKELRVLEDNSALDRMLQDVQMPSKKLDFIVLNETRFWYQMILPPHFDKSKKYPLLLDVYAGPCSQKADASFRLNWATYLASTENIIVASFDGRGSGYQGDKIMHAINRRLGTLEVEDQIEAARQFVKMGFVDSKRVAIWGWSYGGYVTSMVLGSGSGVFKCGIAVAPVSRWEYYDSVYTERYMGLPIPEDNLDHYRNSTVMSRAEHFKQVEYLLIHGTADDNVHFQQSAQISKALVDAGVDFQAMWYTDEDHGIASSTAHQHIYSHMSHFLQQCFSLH
T3 sequence (P14740 37-767 limits assumed): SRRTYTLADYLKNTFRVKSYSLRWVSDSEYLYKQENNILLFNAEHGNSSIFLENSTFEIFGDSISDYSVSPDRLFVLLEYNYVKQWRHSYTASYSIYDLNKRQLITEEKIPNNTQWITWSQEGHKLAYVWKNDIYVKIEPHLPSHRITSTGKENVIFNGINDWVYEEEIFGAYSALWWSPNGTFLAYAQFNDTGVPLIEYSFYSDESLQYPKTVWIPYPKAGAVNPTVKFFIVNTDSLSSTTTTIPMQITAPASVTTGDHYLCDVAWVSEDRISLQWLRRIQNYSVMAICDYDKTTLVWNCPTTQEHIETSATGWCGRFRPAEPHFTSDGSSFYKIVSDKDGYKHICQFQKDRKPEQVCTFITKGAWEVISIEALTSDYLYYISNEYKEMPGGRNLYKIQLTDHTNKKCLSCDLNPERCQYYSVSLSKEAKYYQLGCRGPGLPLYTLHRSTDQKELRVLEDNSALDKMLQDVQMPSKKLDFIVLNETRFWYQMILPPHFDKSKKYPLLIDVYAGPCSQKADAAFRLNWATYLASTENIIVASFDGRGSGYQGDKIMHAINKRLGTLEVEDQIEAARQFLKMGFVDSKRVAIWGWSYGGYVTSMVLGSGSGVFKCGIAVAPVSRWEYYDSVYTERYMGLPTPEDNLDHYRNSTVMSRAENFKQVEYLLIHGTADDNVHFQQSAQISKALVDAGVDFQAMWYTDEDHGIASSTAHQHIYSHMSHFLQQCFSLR

SMILES	MTD (maximum tolerated dose) [1, 9]	Persistence / reversibility of DPP-IV inhibition [2]	Effect on serum levels of KC/CXCL1 [4]	also measured
C[C@H](N)C(=O)N1CCC[C@H]1B(O)O [Ala-boroPro]	≧2,000 μg/kg	–	–	–
NC(N)=NCCC[C@H](N)C(=O)N1CCC[C@H]1B(O)O [Arg-boroPro]	≧2,000 μg/kg	more rapidly reversible	–	–
NC(=O)CC[C@H](N)C(=O)N1CCC[C@H]1B(O)O [Gln-boroPro]	≧800 μg/kg	–	–	–
N[C@@H](CCC(=O)O)C(=O)N1CCC[C@H]1B(O)O [Glu-boroPro]	–	sustained DPP-IV inhibition	failed to affect serum levels of KC/CXCL1 at any of the doses tested	Inhibition of serum DPP-IV activity ([3]; 20 and 200 μg doses per mouse, oral): maximally inhibited serum DPP-IV activity; ID50 (dose required to reduce serum DPP-IV activity by 50% of baseline) ([3]; BALB/c mice, single oral dose): 1 μg/mouse; MTD (maximum tolerated dose) ([1]; Lewis, rat, in vivo, 5 days): 15,000 μg/kg; Glucose excursion post oral glucose challenge ([5]; 1.0 μmol/kg oral, 15 minutes prior to glucose 1 g/kg): reduced; Anti-glycemic effect (area under the blood glucose curve) ([5]; single 1.0 μmol/kg dose, ANOVA): significant (P=0.0010); Blood plasma level of GLP-1 following oral glucose challenge [6]: increased; Blood plasma level of insulin following oral glucose challenge [6]: increased; Blood glucose excursion after oral glucose challenge ([6]; glucose 2 g/kg): reduced
CC[C@H](C)[C@H](N)C(=O)N1CCC[C@H]1B(O)O [Ile-boroPro]	120 µg/kg	sustained DPP-IV inhibition	stimulate increased serum levels of KC/CXCL1 in a dose-dependent manner	Stimulation of G-CSF levels in culture supernatants (stimulation index) [7]: stimulate increased levels of G-CSF
CC(C)C[C@H](N)C(=O)N1CCC[C@H]1B(O)O [Leu-boroPro]	200 µg/kg	more rapidly reversible	stimulate increased serum levels of KC/CXCL1 in a dose-dependent manner	Stimulation of G-CSF levels in culture supernatants (stimulation index) [7]: stimulate increased levels of G-CSF
NCCCC[C@H](N)C(=O)N1CCC[C@H]1B(O)O [Lys-boroPro]	≧2,000 μg/kg	more rapidly reversible	–	–
CSCC[C@H](N)C(=O)N1CCC[C@H]1B(O)O [Met-boroPro]	160 µg/kg	–	–	–
N[C@@H](Cc1ccccc1)C(=O)N1CCC[C@H]1B(O)O [Phe-boroPro]	–	more rapidly reversible	–	–
O=C(C1CCCN1)N1CCCC1B(O)O (stereo not drawn) [Pro-boroPro]	≧2,000 μg/kg	more rapidly reversible	–	–
N[C@@H](CO)C(=O)N1CCC[C@H]1B(O)O [Ser-boroPro]	4,000 μg/kg	–	–	–
C[C@@H](O)[C@H](N)C(=O)N1CCC[C@H]1B(O)O [Thr-boroPro]	800 µg/kg	–	–	–
CC(C)[C@H](N)C(=O)N1CCC[C@H]1B(O)O [Val-boroPro]	20 µg/kg	–	stimulate increased serum levels of KC/CXCL1 in a dose-dependent manner	ID50 (dose causing a 50% reduction in serum DPP-IV activity from baseline) [8]: 0.009 mg/kg
